Test results reported in publication PMC8301926 (Biomolecules, 2021).
“And” between values parts separate entries of the source, which are not always exact repeats. Equal entries are not always repeated.

What was measured:
[1] = biological target: T1, recombinant human monoamine oxidase A (hMAO-A) (Homo sapiens, UniProt P21397); assay: hMAO-A inhibition, MAO-Glo chemiluminescent assay; type: biochemical
T1 sequence (P21397 1-527): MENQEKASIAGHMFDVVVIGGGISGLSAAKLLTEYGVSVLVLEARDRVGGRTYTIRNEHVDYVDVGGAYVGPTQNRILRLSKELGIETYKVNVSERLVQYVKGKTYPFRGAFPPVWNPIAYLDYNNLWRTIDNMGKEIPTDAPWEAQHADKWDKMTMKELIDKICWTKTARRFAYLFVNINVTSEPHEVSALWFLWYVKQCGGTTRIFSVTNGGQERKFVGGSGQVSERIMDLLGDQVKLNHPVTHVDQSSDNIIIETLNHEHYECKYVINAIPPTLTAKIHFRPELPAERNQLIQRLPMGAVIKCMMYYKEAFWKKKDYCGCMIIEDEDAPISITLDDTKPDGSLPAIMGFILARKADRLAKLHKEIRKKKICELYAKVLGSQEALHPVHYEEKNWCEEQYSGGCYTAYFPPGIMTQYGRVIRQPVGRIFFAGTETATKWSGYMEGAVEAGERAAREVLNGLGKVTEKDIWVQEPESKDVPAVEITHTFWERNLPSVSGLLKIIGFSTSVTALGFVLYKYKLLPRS

[2] = biological target: T2, human M1 muscarinic acetylcholine receptor (hM1R) (Homo sapiens, UniProt P11229); assay: M1 (h) functional GPCR assay, agonist effect, intracellular Ca2+; type: cell-based; conditions: 100 µM; % of control response to 100-nM acetylcholine; CHO cells
T2 construct: host or cells: CHO cells

[3] = biological target: T2, human M1 muscarinic acetylcholine receptor (hM1R); assay: M1 (h) functional GPCR assay, antagonist effect, intracellular Ca2+; type: cell-based; conditions: CHO
[4] = biological target: T3, human M2 muscarinic acetylcholine receptor (hM2R) (Homo sapiens, UniProt P08172); assay: M2 (h) functional GPCR assay, antagonist effect, cAMP HTRF; type: cell-based; conditions: CHO
T3 construct: host or cells: CHO cells
T3 sequence (P08172 1-466): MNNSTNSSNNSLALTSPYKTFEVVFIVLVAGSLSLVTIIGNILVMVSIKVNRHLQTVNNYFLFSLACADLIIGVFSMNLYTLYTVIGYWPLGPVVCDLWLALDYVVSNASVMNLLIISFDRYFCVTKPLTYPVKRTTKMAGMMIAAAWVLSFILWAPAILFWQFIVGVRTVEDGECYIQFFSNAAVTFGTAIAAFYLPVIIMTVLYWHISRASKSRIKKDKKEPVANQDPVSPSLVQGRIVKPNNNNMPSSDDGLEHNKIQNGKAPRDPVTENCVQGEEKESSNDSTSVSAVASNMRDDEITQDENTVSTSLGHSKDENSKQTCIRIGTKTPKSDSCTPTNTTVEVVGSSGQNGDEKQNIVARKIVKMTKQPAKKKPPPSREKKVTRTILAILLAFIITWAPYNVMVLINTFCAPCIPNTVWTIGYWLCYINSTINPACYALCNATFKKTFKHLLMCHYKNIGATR

[5] = biological target: T4, human M3 muscarinic acetylcholine receptor (hM3R) (Homo sapiens, UniProt P20309); assay: M3 (h) functional GPCR assay, agonist effect, intracellular Ca2+; type: cell-based; conditions: 100 µM; % of control response to 1-µM acetylcholine; CHO cells
T4 construct: host or cells: CHO cells

[6] = biological target: T5, human M4 muscarinic acetylcholine receptor (hM4R) (Homo sapiens, UniProt P08173); assay: M4 (h) functional GPCR assay, agonist effect, cAMP HTRF; type: cell-based; conditions: 100 µM; % of control response to 1-µM acetylcholine; CHO cells
T5 construct: host or cells: CHO cells
T5 sequence (P08173 1-479): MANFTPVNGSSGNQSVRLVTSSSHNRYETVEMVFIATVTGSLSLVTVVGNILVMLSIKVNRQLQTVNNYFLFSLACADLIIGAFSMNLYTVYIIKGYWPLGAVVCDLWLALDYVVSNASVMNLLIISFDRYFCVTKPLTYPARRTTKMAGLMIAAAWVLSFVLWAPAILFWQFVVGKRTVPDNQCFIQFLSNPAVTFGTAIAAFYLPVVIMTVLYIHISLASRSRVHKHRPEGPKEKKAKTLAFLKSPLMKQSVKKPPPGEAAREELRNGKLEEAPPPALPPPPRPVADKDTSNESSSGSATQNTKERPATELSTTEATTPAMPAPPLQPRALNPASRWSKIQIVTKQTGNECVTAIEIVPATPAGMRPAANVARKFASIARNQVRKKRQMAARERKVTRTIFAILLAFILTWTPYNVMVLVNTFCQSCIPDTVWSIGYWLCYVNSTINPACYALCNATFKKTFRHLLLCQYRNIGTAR

[7] = biological target: T6, human M5 muscarinic acetylcholine receptor (hM5R) (Homo sapiens, UniProt P08912); assay: M5 (h) functional GPCR assay, agonist effect, intracellular Ca2+; type: cell-based; conditions: 100 µM; % of control response to 624-nM acetylcholine; RBL cells
T6 construct: host or cells: RBL (rat basophilic leukemic) cells
T6 sequence (P08912 1-532): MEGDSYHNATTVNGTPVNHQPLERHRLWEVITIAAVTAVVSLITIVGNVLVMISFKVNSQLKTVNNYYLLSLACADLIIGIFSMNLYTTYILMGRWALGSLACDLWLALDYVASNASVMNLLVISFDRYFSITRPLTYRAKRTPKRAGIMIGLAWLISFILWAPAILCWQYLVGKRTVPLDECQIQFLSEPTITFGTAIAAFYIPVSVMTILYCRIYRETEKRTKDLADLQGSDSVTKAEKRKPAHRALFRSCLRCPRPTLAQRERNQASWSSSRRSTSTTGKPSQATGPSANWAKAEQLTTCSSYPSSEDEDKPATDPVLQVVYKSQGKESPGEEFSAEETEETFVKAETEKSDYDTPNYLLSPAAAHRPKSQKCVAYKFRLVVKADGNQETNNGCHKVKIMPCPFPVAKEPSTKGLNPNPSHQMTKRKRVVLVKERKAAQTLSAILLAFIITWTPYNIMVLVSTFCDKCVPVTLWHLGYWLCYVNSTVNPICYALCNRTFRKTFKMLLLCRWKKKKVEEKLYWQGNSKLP

[8] = biological target: T6, human M5 muscarinic acetylcholine receptor (hM5R); assay: M5 (h) functional GPCR assay, antagonist effect, intracellular Ca2+; type: cell-based; conditions: RBL
[9] = test system: recombinant human MAO-A (hMAO-A); design: method as in earlier work; conditions: ref 27 (Dittman et al., 2004); read-out: IC50, recombinant human MAO-A (literature); cited from earlier work

T2 sequence (P11229 whole entry): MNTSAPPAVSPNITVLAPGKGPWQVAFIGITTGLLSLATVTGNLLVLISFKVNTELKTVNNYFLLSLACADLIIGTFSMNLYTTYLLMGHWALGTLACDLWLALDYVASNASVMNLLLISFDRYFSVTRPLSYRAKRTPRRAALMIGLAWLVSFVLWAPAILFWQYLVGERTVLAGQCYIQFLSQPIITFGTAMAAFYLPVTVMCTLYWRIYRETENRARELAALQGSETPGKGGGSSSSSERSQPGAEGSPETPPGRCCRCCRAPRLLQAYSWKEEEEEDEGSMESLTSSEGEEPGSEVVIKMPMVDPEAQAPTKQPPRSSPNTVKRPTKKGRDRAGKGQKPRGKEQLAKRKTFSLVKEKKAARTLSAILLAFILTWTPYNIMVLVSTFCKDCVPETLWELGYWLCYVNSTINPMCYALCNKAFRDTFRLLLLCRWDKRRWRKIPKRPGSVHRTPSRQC
T4 sequence (P20309 whole entry): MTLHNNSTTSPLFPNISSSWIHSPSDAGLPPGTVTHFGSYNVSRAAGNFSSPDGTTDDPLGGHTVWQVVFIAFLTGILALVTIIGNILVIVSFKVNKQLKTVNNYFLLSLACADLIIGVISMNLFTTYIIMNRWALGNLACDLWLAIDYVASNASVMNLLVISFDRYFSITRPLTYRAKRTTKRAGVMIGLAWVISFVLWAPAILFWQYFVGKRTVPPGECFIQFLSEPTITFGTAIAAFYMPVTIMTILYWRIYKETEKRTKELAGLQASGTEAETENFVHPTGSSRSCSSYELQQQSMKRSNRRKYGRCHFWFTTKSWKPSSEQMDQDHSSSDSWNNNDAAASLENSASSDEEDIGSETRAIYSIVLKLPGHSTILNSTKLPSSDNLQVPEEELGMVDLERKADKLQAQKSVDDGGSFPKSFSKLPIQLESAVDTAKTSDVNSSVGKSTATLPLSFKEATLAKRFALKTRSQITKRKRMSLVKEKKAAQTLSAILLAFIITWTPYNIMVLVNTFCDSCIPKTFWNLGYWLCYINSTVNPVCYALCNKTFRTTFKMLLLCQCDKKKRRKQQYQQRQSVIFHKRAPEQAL

Structure (SMILES): Cc1coc2c1C(=O)C(=O)c1c-2ccc2c(C)cccc12 [Tanshinone I]
- IC50 ([1]; IC50, hMAO-A, mean ± SD of triplicate experiments): < 10 µM and 2.62 µM
- SI (selectivity index) ([1]; ratio of the IC50 value for hMAO-A inhibition to that for hMAO-B inhibition): 0.11
- % Stimulation, M1 [2]: 2.5 ± 0.21%
- inhibition at 100 µM [3]: 13.8 ± 1.98%
- inhibition at 100 µM [4]: 35.8 ± 4.74%
- % Stimulation, M3 [5]: −2.3 ± 0.21%
- % Stimulation, M4 [6]: −23.5 ± 1.48%
- % Stimulation, M5 [7]: −1.6 ± 0.85%
- inhibition at 100 µM [8]: -0.5 ± 0.42%
- IC50 [9]: 80 µM
